Columns and labels:
Format in all cases: in vivo
[1] = system: giant foxtail (Setaria faberi); experiment: Test G Pre-Emergence Protocol; settings: Setaria faberi, pre-emergence, 312 h, evaluated after 13 days
In short: (§1)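 Spraying took place one day after sowing, at 15.625, 62.5 or 250 g/ha, using an acetone/water (50:50) spray solution containing 0.5% Tween 20. Plants were kept under glasshouse conditions (24/16 °C, 14 h light, 65% humidity, watered twice daily), and injury was rated 0–100 at day 13.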

corn (Zea mays) [2] = experiment: Test G Pre-Emergence Protocol; settings: Zea mays, pre-emergence, 312 h, evaluated after 13 days
In short: as §1

[3] = system: redroot pigweed (Amaranthus retroflexus); experiment: Test G Pre-Emergence Protocol; settings: Amaranthus retroflexus, pre-emergence, 312 h, evaluated after 13 days
In short: as §1

[4] = system: velvetleaf (Abutilon theophrasti); experiment: Test G Pre-Emergence Protocol; settings: Abutilon theophrasti, pre-emergence, 312 h, evaluated after 13 days
In short: as §1

[5] = system: barnyardgrass (Echinochloa crus-galli); experiment: Test G Pre-Emergence Protocol; settings: Echinochloa crus-galli, pre-emergence, 312 h, evaluated after 13 days
In short: as §1

[6] = system: ivy-leaved morning glory (Ipomoea hederacea); experiment: Test G Pre-Emergence Protocol; settings: Ipomoea, pre-emergence, 312 h, evaluated after 13 days
In short: as §1

[7] = system: giant foxtail (Setaria faberi); experiment: Test G Post-Emergence Protocol; settings: Setaria faberi, post-emergence, 312 h, read-out: Foxtail, Giant damage rating
In short: (§2)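 Scores run 0 (no damage) to 100 (total damage) and were taken 13 days after spraying. Plants had been raised in pots for 8 days under glasshouse control (24/16 °C, 14 h photoperiod, 65% humidity) and then treated at 15.625, 62.5 or 250 g/ha.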

corn (Zea mays) [8] = experiment: Test G Post-Emergence Protocol; settings: Zea mays, post-emergence, 312 h, read-out: Corn damage rating
In short: as §2

[9] = system: redroot pigweed (Amaranthus retroflexus); experiment: Test G Post-Emergence Protocol; settings: Amaranthus retroflexus, post-emergence, 312 h, read-out: Pigweed, Redroot damage rating
In short: as §2

[10] = system: velvetleaf (Abutilon theophrasti); experiment: Test G Post-Emergence Protocol; settings: Abutilon theophrasti, post-emergence, 312 h, read-out: Velvetleaf damage rating
In short: as §2

[11] = system: barnyardgrass (Echinochloa crus-galli); experiment: Test G Post-Emergence Protocol; settings: Echinochloa crus-galli, post-emergence, 312 h, read-out: Barnyardgrass damage rating
In short: as §2

[12] = system: ivy-leaved morning glory (Ipomoea hederacea); experiment: Test G Post-Emergence Protocol; settings: Ipomoea, post-emergence, 312 h, read-out: Morningglory, Ivy-leaved damage rating
In short: as §2

[13] = 15.625 g ai/ha, evaluated after 13 days (100=total damage to plant; 0=no damage to plant)
[14] = 62.5 g ai/ha, evaluated after 13 days, 100=total damage to plant, 0=no damage to plant
[15] = 250 g ai/ha, evaluated after 13 days, 100=total damage to plant, 0=no damage to plant

SMILES: COCCOc1cc([C@@H]2CN(C)C(=O)[C@H]2C(=O)Nc2cccc(F)c2C)ccc1C (racemic) [Compound 1790]
- pest or weed control at 15.625 g/ha ([1]; 15.625 g ai/ha, read-out: Foxtail, Giant damage rating (100=total damage to plant; 0=no damage to plant)): 70%
- pest or weed control at 62.5 g/ha ([1]; 62.5 g ai/ha, 100=total damage to plant, 0=no damage to plant, read-out: Foxtail, Giant damage rating): 70%
- pest or weed control at 250 g/ha ([1]; 250 g ai/ha, read-out: Foxtail, Giant damage rating (100=total damage to plant; 0=no damage to plant)): 90%
- plant injury at 15.625 g/ha (corn (Zea mays) [2]; 15.625 g ai/ha, read-out: Corn damage rating (100=total damage to plant; 0=no damage to plant)): 20%
- plant injury at 62.5 g/ha (corn (Zea mays) [2]; 62.5 g ai/ha, 100=total damage to plant, 0=no damage to plant, read-out: Corn damage rating): 70%
- plant injury at 250 g/ha (corn (Zea mays) [2]; 250 g ai/ha, read-out: Corn damage rating (100=total damage to plant; 0=no damage to plant)): 90%
- pest or weed control at 15.625 g/ha ([3]; 15.625 g ai/ha, read-out: Pigweed, Redroot damage rating (100=total damage to plant; 0=no damage to plant)): 0%
- pest or weed control at 62.5 g/ha ([3]; 62.5 g ai/ha, 100=total damage to plant, 0=no damage to plant, read-out: Pigweed, Redroot damage rating): 0%
- pest or weed control at 250 g/ha ([3]; 250 g ai/ha, read-out: Pigweed, Redroot damage rating (100=total damage to plant; 0=no damage to plant)): 10%
- pest or weed control at 15.625 g/ha ([4]; 15.625 g ai/ha, read-out: Velvetleaf damage rating (100=total damage to plant; 0=no damage to plant)): 0%
- pest or weed control at 62.5 g/ha ([4]; 62.5 g ai/ha, 100=total damage to plant, 0=no damage to plant, read-out: Velvetleaf damage rating): 0%
- pest or weed control at 250 g/ha ([4]; 250 g ai/ha, read-out: Velvetleaf damage rating (100=total damage to plant; 0=no damage to plant)): 40%
- pest or weed control at 15.625 g/ha ([5]; 15.625 g ai/ha, read-out: Barnyardgrass damage rating (100=total damage to plant; 0=no damage to plant)): 40%
- pest or weed control at 62.5 g/ha ([5]; 62.5 g ai/ha, 100=total damage to plant, 0=no damage to plant, read-out: Barnyardgrass damage rating): 70%
- pest or weed control at 250 g/ha ([5]; 250 g ai/ha, read-out: Barnyardgrass damage rating (100=total damage to plant; 0=no damage to plant)): 90%
- pest or weed control at 15.625 g/ha ([6]; 15.625 g ai/ha, read-out: Morningglory, Ivy-leaved damage rating (100=total damage to plant; 0=no damage to plant)): 0%
- pest or weed control at 62.5 g/ha ([6]; 62.5 g ai/ha, 100=total damage to plant, 0=no damage to plant, read-out: Morningglory, Ivy-leaved damage rating): 20%
- pest or weed control at 250 g/ha ([6]; 250 g ai/ha, read-out: Morningglory, Ivy-leaved damage rating (100=total damage to plant; 0=no damage to plant)): 70%
- pest or weed control at 15.625 g/ha [7, 13]: 70%
- pest or weed control at 62.5 g/ha [7, 14]: 80%
- pest or weed control at 250 g/ha [7, 15]: 80%
- plant injury at 15.625 g/ha (corn (Zea mays) [8]; [13]): 50%
- plant injury at 62.5 g/ha (corn (Zea mays) [8]; [14]): 70%
- plant injury at 250 g/ha (corn (Zea mays) [8]; [15]): 80%
- pest or weed control at 15.625 g/ha [9, 13]: 0%
- pest or weed control at 62.5 g/ha [9, 14]: 0%
- pest or weed control at 250 g/ha [9, 15]: 0%
- pest or weed control at 15.625 g/ha [10, 13]: 0%
- pest or weed control at 62.5 g/ha [10, 14]: 20%
- pest or weed control at 250 g/ha [10, 15]: 30%
- pest or weed control at 15.625 g/ha [11, 13]: 50%
- pest or weed control at 62.5 g/ha [11, 14]: 70%
- pest or weed control at 250 g/ha [11, 15]: 70%
- pest or weed control at 15.625 g/ha [12, 13]: 20%
- pest or weed control at 62.5 g/ha [12, 14]: 20%
- pest or weed control at 250 g/ha [12, 15]: 40%

— patent publication US12077503B2, “Substituted cyclic amides and their use as herbicides” (FMC CORPORATION, priority 2015, dated 2024)
